According to article PMC10687071 (The Journal of Biological Chemistry, 2023):

Biological target: T1, PAS domain of EAG1 channels (Mus musculus, UniProt Q60603)
T1 construct: DNA encoding PAS (residues 7–136) of mouse EAG1 channels (GI # Q60603); 6-His (N); TEV protease cleavage site (N); made in house; host or cells: BL21 (DE3) Escherichia coli
T1 sequence (Q60603 7-136): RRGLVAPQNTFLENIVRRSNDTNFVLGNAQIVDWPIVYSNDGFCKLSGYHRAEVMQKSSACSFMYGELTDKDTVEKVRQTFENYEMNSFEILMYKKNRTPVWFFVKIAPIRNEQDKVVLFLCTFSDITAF
Assay: Surface plasmon resonance, PAS domain immobilized on CM5 chip
Assay type: binding
Details: imipramine 1, 10 and 30 μM; concentration-dependent increase in SPR response; affinity not determined
Experimental: DNA encoding PAS (residues 7–136) of mouse EAG1 channels (GI # Q60603) was synthesized by BioBasic and subcloned into pETM11 bacterial expression vector containing an N-terminal 6-His affinity tag followed by a tobacco etch virus (TEV) protease cleavage site. The DNA sequences were verified by sequencing (Genewiz). The PAS domains were expressed in BL21 (DE3) Escherichia coli cells as previously described ([25], [63]). The cells were grown at 37 °C to an optical density at 600 nm of 0.6 to 0.8, induced with IPTG at 18 °C overnight and harvested by centrifugation. The cells were resuspended in 150 mM KCl, 1 mM TCEP, 1 mM ABSF, 2.5 mg/ml DNaseI and 30 mM HEPES, pH 7.5. Cells were lysed with an Emulsiflex-C5 (Avestin). Insoluble protein was separated by centrifugation in 45 Ti rotor at 30,000 rpm for 1 h at 4 °C. The PAS domains were purified by Ni^2+ affinity chromatography using HisTrap HP column (Cytiva) and eluted on a linear gradient to 500 mM imidazole. The protein was further purified on a Superdex 200 Increase 10/300 column (Cytiva) equilibrated with 150 mM KCl, 1 mM TCEP, 10% glycerol, and 30 mM HEPES, pH 7.5. The protein concentration was determined with Bradford Protein Assay Kit (Pierce).
All SPR binding experiments were performed on a CM5 chip (Cytiva) at 25 °C using a Biacore T200 Instrument (GE Healthcare). […]

## CN(C)CCCN1c2ccccc2CCc2ccccc21 [imipramine]
  SPR binding to the immobilized PAS domain: directly binds
